From ChEMBL document CHEMBL1156757, “Dihydroxyphenylisoindoline amides as orally bioavailable inhibitors of the heat shock protein 90 (hsp90) molecular chaperone” (J Med Chem, 2010)

Columns and labels:
Heat shock protein HSP90 = Heat shock protein HSP90 (Homo sapiens, UniProt P07900+P08238)
Mus musculus [1] = test: Free plasma concentration in mouse at 20 mg/kg, iv after 1 hr; format: ADME, organism-based; design: dose 20 mg/kg, route intravenous; settings: in vivo
[2] = Half life in mouse at 20 mg/kg, iv; format: ADME, organism-based; design: dose 20 mg/kg, route intravenous; settings: in vivo
[3] = AUC (0 to infinity) in rat at 10 mg/kg, po; format: ADME, organism-based; design: time infinity, dose 10 mg/kg, route oral; settings: plasma
[4] = Volume of distribution in rat; format: ADME, organism-based; settings: in vivo
[5] = Half life in rat; format: ADME, organism-based; settings: in vivo
[6] = AUC (0 to infinity) in rat at 2.5 mg/kg, iv; format: ADME, organism-based; design: time infinity, dose 2.5 mg/kg, route intravenous; settings: plasma
Mus musculus [7] = test: Free plasma concentration in mouse at 100 mg/kg, ip after 1 hr; format: ADME, organism-based; design: dose 100 mg/kg, route intraperitoneal; settings: in vivo
Mus musculus [8] = test: Free plasma concentration in mouse at 20 mg/kg, iv after 4 hrs; format: ADME, organism-based; design: dose 20 mg/kg, route intravenous; settings: in vivo
Mus musculus [9] = test: Free plasma concentration in mouse at 100 mg/kg, po after 1 hr; format: ADME, organism-based; design: dose 100 mg/kg, route oral; settings: in vivo
[10] = Half life in mouse at 100 mg/kg, po; format: ADME, organism-based; design: dose 100 mg/kg, route oral; settings: in vivo
Liver microsomes [11] = test: Hepatic clearance in rat liver microsomes […]; format: ADME, Microsome
[12] = Oral bioavailability in rat; format: ADME, organism-based; settings: in vivo
Mus musculus [13] = test: Free plasma concentration in mouse at 100 mg/kg, ip after 4 hrs; format: ADME, organism-based; design: dose 100 mg/kg, route intraperitoneal; settings: in vivo
Liver microsomes [14] = test: Hepatic clearance in human liver microsomes […]; format: ADME, Microsome
Mus musculus [15] = test: Free plasma concentration in mouse at 100 mg/kg, po after 4 hrs; format: ADME, organism-based; design: dose 100 mg/kg, route oral; settings: in vivo
[16] = Clearance in rat; format: ADME, organism-based; settings: in vivo

SMILES | IC50 (Heat shock protein HSP90) [nM] | CLH (Liver microsomes [14]) [µL/min] | also measured
CCNC(=O)[C@H]1c2ccccc2CN1C(=O)c1cc(Cl)c(O)cc1O | 300 | 7 | Cp(f) (Mus musculus [1]): 286 nM; half-life [2]: 5.2 h; AUC(0-inf) [3]: 1300 ng·h/mL; Vd [4]: 3.3 L/kg; half-life [5]: 5.2 h; AUC(0-inf) [6]: 1700 ng·h/mL; Cp(f) (Mus musculus [7]): 16000 nM; Cp(f) (Mus musculus [8]): 76 nM; Cp(f) (Mus musculus [9]): 810 nM; half-life [10]: 8.3 h; CLH (Liver microsomes [11]): 0.2 µL/min; bioavailability [12]: 20%; Cp(f) (Mus musculus [13]): 410 nM; Cp(f) (Mus musculus [15]): 330 nM; clearance [16]: 23.3 mL/min/kg
O=C(NCc1ccccc1)C1c2ccccc2CN1C(=O)c1cc(Cl)c(O)cc1O (stereo unspecified) | 700 | 25 | –
CCCNC(=O)C1c2ccccc2CN1C(=O)c1cc(Cl)c(O)cc1O (stereo unspecified) | – | 9 | –
CCNC(=O)C1c2ccccc2CN1C(=O)c1cc(Cl)c(O)cc1O (stereo unspecified) | 300 | 4.7 | –
C=CCNC(=O)C1c2ccccc2CN1C(=O)c1cc(Cl)c(O)cc1O (stereo unspecified) | 1500 | 8.5 | –
CN(C)C(=O)C1c2ccccc2CN1C(=O)c1cc(Cl)c(O)cc1O (stereo unspecified) | 1500 | 2.4 | –
CO[C@H]1/C=C\C=C(/C)C(=O)NC2=CC(=O)C(NCCN(C)C)=C(C[C@@H](C)C[C@H](OC)[C@H](O)[C@@H](C)/C=C(\C)[C@@H]1OC(N)=O)C2=O [ALVESPIMYCIN] | – | < 3 | –

Further lines, with some results ahead:

IC50 (Heat shock protein HSP90) [nM] | CLH (Liver microsomes [14]) [µL/min] | SMILES | also measured
– | 9 | O=C(NC1CCCCC1)[C@H]1CCCN1C(=O)c1cc(Cl)c(O)cc1O | –
– | < 7 | CN(C)C(=O)[C@H]1CCCN1C(=O)c1cc(Cl)c(O)cc1O | –
1700 | < 2 | CNC(=O)C1c2ccccc2CN1C(=O)c1cc(Cl)c(O)cc1O (stereo unspecified) | –
1000 | 129 | Cc1ccccc1[C@H]1CCCN1C(=O)c1cc(Cl)c(O)cc1O | –
– | 56 | O=C(c1cc(Cl)c(O)cc1O)N1CCCC1 | –
– | < 9 | O=C([C@H]1CCCN1C(=O)c1cc(Cl)c(O)cc1O)N1CCCC1 | –
600 | 11 | O=C([C@H]1c2ccccc2CN1C(=O)c1cc(Cl)c(O)cc1O)N1CCCC1 | AUC(0-inf) [3]: 2900 ng·h/mL; Vd [4]: 8.1 L/kg; half-life [5]: 7.9 h; AUC(0-inf) [6]: 2100 ng·h/mL; CLH (Liver microsomes [11]): 0.2 µL/min; bioavailability [12]: 35%; clearance [16]: 23.3 mL/min/kg
600 | 2 | O=C(C1c2ccccc2CN1C(=O)c1cc(Cl)c(O)cc1O)N1CCCC1 (stereo unspecified) | –
